# Test results as given in patent publication US12728119B2, “Pharmaceutical composition for preventing or treating cancer comprising 3-ketoacyl CoA thiolase inhibitor and carnitine acylcarnitine carrier inhibitor” (NATIONAL CANCER CENTER, priority 2020, dated 2026).
# Several values for one entry are separate records, joined by “and”; a condition that tells them apart may be missing. Equal values may be shown once.
# Legend:
# Type in all cases: cell-based
# [1] = system: SK-hep-1 liver cancer cell line; assay: SRB analysis 3; details: 48 hours
# Method: (§1) Through SRB analysis (n=3), the effect of triple combination treatment of a CAC inhibitor (KN510: omeprazole), ACAA inhibitor (KN713: trimetazidine) and other anticancer drug on cell growth in the cancer cells was analyzed. (see Table 11).
# (§2) The SRB assay was performed as follows: each cell line (100 μl) was seeded into 96-well microtiter plates at densities ranging from 5,000 to 40,000 cells/well depending on the doubling time of each cell line. After 24 hours, drug (100 μl per well) was added to each well and the culture was incubated at 37° C. for 48 hours. Cells were then fixed in 50% TCA (50 μl per well) and plates were incubated at 4° C. for a minimum of 1 hour or a maximum of 3 hours. After that, the liquid was removed from the plate, then rinsed 5 times with water and dried for approximately 12-24 hours at room temperature (RT). After the fixed cells were stained with 0.4% SRB (100 μl per well) for 10 minutes at room temperature, the plates were washed 3 times with 1% glacial acetic acid and dried at room temperature for about 12-24 hours. SRB staining was dissolved in 10 mM Trizma base and absorbance was read at 515 nm. The effect of the drug was expressed as GI50 (50% growth inhibition), TGI (total growth inhibition) or LC50 (lethal concentration). GI50 is the maximum concentration at the moment of 50% inhibition of cell proliferation and IC50 is the concentration of the drug that inhibits the enzyme activity in vitro by 50% in this study.
# [2] = system: Huh-7 liver cancer cell line; assay: SRB analysis 3; details: 48 hours
# Method: as §1, §2
# [3] = system: OVCAR-8 ovarian cancer cell line; assay: SRB analysis 3; details: 48 hours
# Method: as §1, §2
# [4] = system: Caki-1 renal cancer cell line; assay: SRB analysis 3; details: 48 hours
# Method: as §1, §2
# [5] = system: MIA PaCa-2 pancreatic cancer (PDAC) cell line; assay: SRB analysis 3; details: 48 hours
# Method: as §1, §2
# [6] = system: UACC62 melanoma cell line; assay: SRB analysis 3; details: 48 hours
# Method: as §1, §2
# [7] = system: MKN45 gastric cancer cell line; assay: SRB analysis 3; details: MKN45, 48 hours
# Method: as §1, §2
# [8] = system: A549 non-small cell lung cancer (NSCLC) cell line; assay: SRB analysis 3; details: 48 hours
# Method: as §1, §2
# [9] = system: COLO-205 colon cancer cell line; assay: SRB analysis 3; details: 48 hours
# Method: as §1, §2
# [10] = system: PC-3 prostate cancer cell line; assay: SRB analysis 3; details: 48 hours
# Method: as §1, §2
# [11] = system: AsPC-1 pancreatic cancer (PDAC) cell line; assay: SRB analysis 3; details: 48 hours
# Method: as §1, §2
# [12] = system: DU145 prostate cancer cell line; assay: SRB analysis 3; details: 48 hours
# Method: as §1, §2
# [13] = system: ACHN renal cancer cell line; assay: SRB analysis 3; details: 48 hours
# Method: as §1, §2
# [14] = system: H1975 non-small cell lung cancer (NSCLC) cell line; assay: SRB analysis 3; details: 48 hours
# Method: as §1, §2
# [15] = system: MDA-MB-231 breast cancer cell line; assay: SRB analysis 3; details: 48 hours
# Method: as §1, §2
# [16] = system: SK-OV-3 ovarian cancer cell line; assay: SRB analysis 3; details: 48 hours
# Method: as §1, §2
# [17] = system: AGS gastric cancer cell line; assay: SRB analysis 3; details: 48 hours
# Method: as §1, §2
# [18] = system: MCF7 breast cancer cell line; assay: SRB analysis 3; details: 48 hours
# Method: as §1, §2
# [19] = system: A375 melanoma cell line; assay: SRB analysis 3; details: 48 hours
# Method: as §1, §2
# [20] = system: HCT-116 colon cancer cell line; assay: SRB analysis 3; details: 48 hours
# Method: as §1, §2
# [21] = system: SW1990 pancreatic cancer cells; assay: SRB analysis 2; details: 48 hours
# [22] = system: Panc-1 pancreatic cancer cells; assay: SRB analysis 2; details: 48 hours
structure (smiles),measurement,setting,value
"COc1ccc2[nH]c([S+]([O-])Cc3ncc(C)c(OC)c3C)nc2c1 (centres unmarked) [KN510, omeprazole]",cell growth (Control = 100),[1]; KN510 100 μM,60.38
same,cell growth (Control = 100),[2]; KN510 100 μM,77.73
same,cell growth (Control = 100),[3]; KN510 100 μM,68.75
same,cell growth (Control = 100),[4]; KN510 100 μM,102.1283
same,cell growth (Control = 100),[5]; KN510 100 μM,65.94
same,cell growth (Control = 100),[6]; KN510 100 μM,50.83
same,cell growth (Control = 100),[7]; KN510 100 μM,62.39
same,cell growth (Control = 100),[8]; KN510 100 μM,55.4 and 30.1
same,cell growth (Control = 100),[9]; KN510 100 μM,78.03
same,cell growth (Control = 100),[10]; KN510 100 μM,59.63
same,cell growth (Control = 100),[11]; KN510 100 μM,65.83
same,cell growth (Control = 100),[12]; KN510 100 μM,76.71
same,cell growth (Control = 100),[13]; KN510 100 μM,61.17
same,cell growth (Control = 100),[14]; KN510 100 μM,84.1319
same,cell growth (Control = 100),[15]; KN510 100 μM,86.99
same,cell growth (Control = 100),[16]; KN510 100 μM,85.06
same,cell growth (Control = 100),[17]; KN510 100 μM,65.05
same,cell growth (Control = 100),[18]; KN510 100 μM,70.3
same,cell growth (Control = 100),[19]; KN510 100 μM,79.18
same,cell growth (Control = 100),[20]; KN510 100 μM,79.65
same,degree of cell growth based on the control (100%),[21]; KN510 100 μM,90.16%
same,degree of cell growth based on the control (100%),[21]; KN510 200 μM,63.83%
same,degree of cell growth based on the control (100%),[22]; KN510 100 μM,63.06%
same,degree of cell growth based on the control (100%),[22]; KN510 200 μM,19.45%
"COc1ccc(CN2CCNCC2)c(OC)c1OC [KN713, trimetazidine]",cell growth (Control = 100),[1]; KN713 2.5 mM,157.7818
same,cell growth (Control = 100),[2]; KN713 2.5 mM,52.09
same,cell growth (Control = 100),[3]; KN713 2.5 mM,72.86
same,cell growth (Control = 100),[4]; KN713 2.5 mM,47.58
same,cell growth (Control = 100),[5]; KN713 2.5 mM,39.45
same,cell growth (Control = 100),[6]; KN713 2.5 mM,54.65
same,cell growth (Control = 100),[7]; KN713 2.5 mM,72.85
same,cell growth (Control = 100),[8]; KN713 2.5 mM,68.8 and 79.2
same,cell growth (Control = 100),[9]; KN713 2.5 mM,31.62
same,cell growth (Control = 100),[10]; KN713 2.5 mM,45.06
same,cell growth (Control = 100),[11]; KN713 2.5 mM,58.71
same,cell growth (Control = 100),[12]; KN713 2.5 mM,55.68
same,cell growth (Control = 100),[13]; KN713 2.5 mM,65.67
same,cell growth (Control = 100),[14]; KN713 2.5 mM,62.58
same,cell growth (Control = 100),[15]; KN713 2.5 mM,74.5469
same,cell growth (Control = 100),[16]; KN713 2.5 mM,83.37
same,cell growth (Control = 100),[17]; KN713 2.5 mM,60.34
same,cell growth (Control = 100),[18]; KN713 2.5 mM,60.36
same,cell growth (Control = 100),[19]; KN713 2.5 mM,70.33
same,cell growth (Control = 100),[20]; KN713 2.5 mM,36.64
